This is an account of results in US20230357152A1 (priority 2020, published 2023).

Common to all, as to experiment: microbe, parasite or virus in culture
What all share (type): cell-based

Test [1] concerns Phytophthora infestans. Conditions: 168 h, read-out: Fungal growth at 31 ppm (%) PHYTIN.
Test [2] relates to Fusarium culmorum. Conditions: 168 h.
The test system of test [3] is Septoria tritici. Conditions: Zymoseptoria tritici, 168 h.

For `CO/N=C(/C(=O)OC)c1cccc(C)c1CO/N=C(\C)c1ccc(Cl)nn1` [Example 91], the activity at 31 ppm in test [1] turned out to be 0%; in test [2], 16%.

Take `CO/N=C(/C(=O)OC)c1cccc(C)c1CO/N=C(\C)c1ncsc1C(F)(F)F` [Example 40]: the activity at 31 ppm in test [1] amounted to 8%; in test [3], 0%.

`CO/N=C(/C(=O)OC)c1cccc(C(F)(F)F)c1CO/N=C(\C)c1cc(-c2ccc(Cl)cc2)on1` [Example 16] gave an activity at 31 ppm in test [2] of 19%.

As for `CNC(=O)/C(=N/OC)c1cccc(C(F)(F)F)c1CO/N=C(\C)c1cc(-c2ccc(Cl)cc2)on1` [Example 17], the activity at 31 ppm in test [1] turned out to be 0%; in test [2], 14%; in test [3], 1%.

In the case of `CNC(=O)/C(=N/OC)c1cccc(C)c1CO/N=C(\C)c1cc(C(F)(F)F)nc(C)n1` [Example 58], the results for the activity at 31 ppm in test [1], in test [2] and in test [3] were 11%, 17% and 21%, respectively.

For `CNC(=O)/C(=N/OC)c1cccc(C)c1CO/N=C(\C)c1cncc(/C(C)=N/OC)n1` [Example 83], the activity at 31 ppm in test [2] came out at 21%.

For `CO/N=C(/C(=O)OC)c1cccc(C)c1CO/N=C(\C)c1cccc(C(F)(F)F)n1` [Example 1], in test [3], the activity at 31 ppm was determined as 10%.

Consider `CO/N=C(/C(=O)OC)c1cccc(C)c1CO/N=C(\C)c1nccc(C(F)(F)F)n1` [Example 71], for which the activity at 31 ppm in test [1] and in test [3] was 0% throughout.

On to `CO/N=C(/C(=O)OC)c1cccc(C)c1CO/N=C(\C)c1cncn1C` [Example 102], for which the activity at 31 ppm in test [1] is 0%.

Take `CO/N=C(/C(=O)OC)c1cccc(C)c1CO/N=C(\C)c1cc(-c2cccc(C(F)(F)F)c2)sn1` [Example 35]: the activity at 31 ppm in test [2] is 20%.

On to `CNC(=O)/C(=N/OC)c1cccc(C)c1CO/N=C(\C)c1cnc(C)c(F)c1` [Example 101], for which the results for the activity at 31 ppm in test [1] and in test [2] were 0% and 15%, respectively.

As for `CO/N=C(/C(=O)OC)c1cccc(C)c1CO/N=C(\C)c1cn(C)nc1C(F)(F)F` [Example 51], the activity at 31 ppm in test [2] came to 8%; in test [3], 3%.

In the case of `CNC(=O)/C(=N/OC)c1cccc(C)c1CO/N=C(\C)c1cccc(OC)n1` [Example 3], the activity at 31 ppm in test [1] turned out to be 0%; in test [2], 6%; in test [3], 4%.

Take `CNC(=O)/C(=N/OC)c1cccc(C)c1CO/N=C(\C)c1cc(C)ccn1` [Example 26]: the activity at 31 ppm turned out to be 0% in test [1], 12% in test [2] and 7% in test [3].

In the case of `CO/N=C(/C(=O)OC)c1cccc(C)c1CO/N=C(\C)c1nccc2ccccc12` [Example 44], the figures for the activity at 31 ppm in test [1] and in test [3] were 15% and 2%, respectively.

In the case of `CNC(=O)/C(=N/OC)c1cccc(C)c1CO/N=C(\C)c1cc(OC)ccn1` [Example 56], the activity at 31 ppm in test [1] turned out to be 0%; in test [2], 11%.

On to `CNC(=O)/C(=N/OC)c1cccc(C)c1CO/N=C(\C)c1cc(-c2ccccc2)sn1` [Example 38], for which the activity at 31 ppm in test [1] was 6%; in test [2] it was 16%.

`CO/N=C(/C(=O)OC)c1cccc(C)c1CO/N=C(\C)c1cc(-c2ccc(Cl)cc2)sn1` [Example 7] yielded an activity at 31 ppm in test [2] of 11%.

On to `CNC(=O)/C(=N/OC)c1cccc(C)c1CO/N=C(\C)c1nccc(C(F)(F)F)n1` [Example 73], for which the activity at 31 ppm in test [1] stood at 1%; in test [2], 13%; in test [3], 21%.

Regarding `CNC(=O)/C(=N/OC)c1cccc(C)c1CO/N=C(\C)c1nccc2ccccc12` [Example 45], the activity at 31 ppm worked out at 0% in test [1], 4% in test [2] and 6% in test [3].

With `CO/N=C(/C(=O)OC)c1cccc(C)c1CO/N=C(\C)c1cnc(C)c(F)c1` [Example 100], the activity at 31 ppm in test [1] was 0%; in test [2], 12%; in test [3], 19%.

Take `CNC(=O)/C(=N/OC)c1cccc(C)c1CO/N=C(\C)c1cc(-c2ccc(Cl)cc2)sn1` [Example 8]: in test [1], the activity at 31 ppm was 6%.

Turning to `CO/N=C(/C(=O)OC)c1cccc(C)c1CO/N=C(\C)c1ccc(C#CC2CC2)nc1` [Example 68], the activity at 31 ppm in test [1] stood at 3%; in test [2], 13%.

In the case of `CNC(=O)/C(=N/OC)c1cccc(C)c1CO/N=C(\C)c1cc2ccccc2cn1` [Example 67], the results for the activity at 31 ppm in test [1], in test [2] and in test [3] were 0%, 9% and 5%, respectively.

For `CNC(=O)/C(=N/OC)c1cccc(C)c1CO/N=C(\C)c1cc(-c2ccc(Cl)cc2)on1` [Example 20], the results for the activity at 31 ppm in test [1] and in test [2] were 3% and 17%, respectively.

For the compound `CO/N=C(/C(=O)OC)c1cccc(C)c1CO/N=C(\C)c1cc(-c2cccc(C(F)(F)F)c2)on1` [Example 19], in test [2], the activity at 31 ppm was 20%.
